Read-outs that look alike come from different tables or passages of the source.
Key:
[1] = MTT cytotoxicity in nonmalignant mammary gland derived cells; assay type: cell-based; conditions: human
Method: (§1) Cell lines were provided by the European Collection of Cell Cultures (ECACC) or by the American Type Culture Collection (ATCC). Seven cell lines were used: MCF-7 (breast adenocarnicoma), 184B5 (nonmalignant, mammary gland derived), CCRF-CEM (lymphoblastic leukemia), HT-29 (colon carcinoma), HTB-54 (lung carcinoma), BEAS-2B (nonmalignant, derived from the bronchial epithelium) and PC-3 (prostate carcinoma). MCF-7, CCRF-CEM, HT-29, HTB-54, BEAS-2B and PC-3 cell lines were grown in RPMI medium (Gibco) supplemented with 10% fetal bovine serum (FBS; Gibco), 100 units/mL penicillin and […] streptomycin (Gibco). 184B5 cells were grown in DMEM/F12 medium supplemented with 5% FBS, 1 × ITS (Lonza), 100 nM hydrocortisone (Aldich), 2 mM sodium pyruvate (Lonza), 20 ng/mL EGF (Sigma-Aldrich), 0.3 nM trans-retinoic acid (Sigma-Aldrich), 100 units/mL penicillin and […] streptomycin. Cells were maintained at 37 °C and 5% CO2.
(§2) The cytotoxic effect of each substance was tested by the MTT method. Each compound was initially dissolved in DMSO at a concentration of 0.01 M, and serial dilutions were prepared with nonsupplemented medium. The cytotoxic effect of each compound was tested at 50 and 10 µM as a first screening. […]
(§3) A total of 1 × 10^4 cells/well in 96-well plates were treated with increasing concentrations of the corresponding compounds for 48 h at 37 °C in a humidified atmosphere containing 5% CO2. Then, cells were incubated with 50 µL of MTT (2 mg/mL stock) for 4 h. The medium was then removed by aspiration, and the formazan crystals were dissolved in […] of DMSO. […] Data were obtained from at least 3 independent experiments performed in quadruplicate. The standard error of the means (SEM) for the cytotoxic parameters was calculated applying the standard deviation formula to the mean values of each parameter for the three independent experiments performed.
(§4) . Cisplatin was used as a standard drug. […]. […] The presence of electron-withdrawing groups (-NO2, -CF3, -Cl) in the phenyl ring favored the cytotoxic activity in the amides, but in the phosphoramidates, the best results were obtained for aliphatic chains methoxy (II.1b, II.2b) and ethoxy (II.1d, II.2d). […].
(§5) The lack of selectivity toward cancerous cells is one of the major issues during the discovery and development of new anticancer agents. Therefore, we evaluated the cytotoxic activity of our compounds against two cell lines derived from nonmalignant breast tissue (184B5) and no malignant bronchial epithelium (BEAS-2B) (Table 2). […].

184B5 = assay: as above; assay type: cell-based; conditions: for GI50 / IC (TGI): Homo sapiens, 184B5, nonmalignant cells, 48 h; for GI50: read-out: GI50 184B5; for IC (TGI): read-out: TGI 184B5
Method: as §1, §2, §3, §4, §5

BEAS-2B = assay: MTT cytotoxicity in nonmalignant bronchial epithelium cells; assay type: cell-based; conditions: Homo sapiens, BEAS-2B, nonmalignant cells, 48 h; for GI50: read-out: GI50 BEAS-2B; for IC (TGI): read-out: TGI BEAS-2B
Method: as §1, §2, §3, §4, §5

[2] = as above; assay type: cell-based; conditions: human
Method: as §1, §2, §3, §4, §5

HTB-54 [3] = assay: cells; assay type: cell-based; conditions: Homo sapiens; for CC50: HTB-54, 48 h, read-out: LC50 HTB54; for GI50 / IC (TGI): HTB-54, 48 h, average ± SEM; for GI50: read-out: GI50 HTB54; for IC (TGI): read-out: TGI HTB54
Method: as §1, §2, §3, §4

PC-3 [4] = assay: cells; assay type: cell-based; conditions: Homo sapiens; for LC50: PC-3, 48 h, read-out: LC50 PC-3; for GI50 / IC (TGI): PC-3, 48 h, average ± SEM; for GI50: read-out: GI50 PC-3; for IC (TGI): read-out: TGI PC-3
Method: as §1, §2, §3, §4

MCF-7 [5] = conditions: read-out: GI50 MCF-7; 48 h, average ± SEM
HT-29 [6] = assay: cells; conditions: Homo sapiens, HT-29, 48 h; for activity at 10 µM: read-out: Cell growth (%) HT-29; for GI50: read-out: GI50 HT-29; for CC50: read-out: LC50 HT-29; for IC (TGI): read-out: TGI HT-29
CCRF-CEM [7] = assay: cells; conditions: Homo sapiens, 48 h; for activity at 10 µM: read-out: Cell growth (%) CCRF-CEM; for GI50: read-out: GI50 CCRF-CEM; for CC50: read-out: LC50 CCRF-CEM; for IC (TGI): read-out: TGI CCRF-CEM
MCF-7 [8] = assay: cells; conditions: Homo sapiens, MCF7, 48 h; for activity at 10 µM: read-out: Cell growth (%) MCF-7; for GI50: read-out: GI50 MCF-7, 48 h, average ± SEM; for CC50: read-out: LC50 MCF-7; for IC (TGI): read-out: TGI MCF-7
HTB-54 [9] = tested on: HTB-54; set-up: method as in earlier work; conditions: DTP database of the NCI, cited from earlier work
HT-29 [10] = tested on: HT-29; set-up: method as in earlier work; conditions: DTP database of the NCI; cited from earlier work
MCF-7 [11] = tested on: MCF-7; set-up: method as in earlier work; conditions: DTP database of the NCI; cited from earlier work
PC-3 [12] = tested on: PC-3; set-up: method as in earlier work; conditions: DTP database of the NCI; cited from earlier work
CCRF-CEM [13] = tested on: CCRF-CEM; set-up: method as in earlier work; conditions: DTP database of the NCI; cited from earlier work

SMILES | LC50 (50% lethal concentration) at 48 h [1] | GI50 (184B5) | IC (TGI) (184B5) | GI50 (BEAS-2B) | IC (TGI) (BEAS-2B) | LC50 (50% lethal concentration) at 48 h [2] | CC50 (HTB-54 [3]) | GI50 (HTB-54 [3]) | IC (TGI) (HTB-54 [3]) | LC50 (PC-3 [4]) | GI50 (PC-3 [4]) | IC (TGI) (PC-3 [4]) | GI50 (MCF-7 [5]) | activity at 10 µM (HT-29 [6]) | GI50 (HT-29 [6]) | CC50 (HT-29 [6]) | IC (TGI) (HT-29 [6]) | activity at 10 µM (CCRF-CEM [7]) | GI50 (CCRF-CEM [7]) | CC50 (CCRF-CEM [7]) | further results
N#C[Se]c1ccc(NC(=O)c2ccc([N+](=O)[O-])cc2)cc1 [I.2e] | > 100 µM | 7.13 µM | > 100 µM | > 100 µM | > 100 µM | > 100 µM | > 100 µM | > 100 µM | > 100 µM | > 100 µM | > 100 µM | > 100 µM | 0.6 ± 0.1 µM | 35.9% | 0.8 ± 0.1 µM | > 100 µM | 58.2 ± 6.4 µM | 50.3% | 31.6 ± 0.4 µM | > 100 µM | IC (TGI) (CCRF-CEM [7]): > 100 µM; activity at 10 µM (MCF-7 [8]): 33.4%; GI50 (MCF-7 [8]): < 1 µM; CC50 (MCF-7 [8]): > 100 µM; IC (TGI) (MCF-7 [8]): 54.4 ± 2.7 µM
N.N.[Cl][Pt][Cl] [Cp, cisplatin] | – | – | – | – | – | – | – | – | – | – | – | – | – | – | – | – | – | – | – | – | TGI HTB54 (HTB-54 [9]): 32.7 µM; GI50 (HTB-54 [9]; read-out: GI50 HTB54): 9.6 µM; GI50 (HT-29 [10]): 7.9 µM; TGI HT-29 (HT-29 [10]): >100 µM; GI50 (MCF-7 [11]): 3.2 µM; TGI MCF-7 (MCF-7 [11]): >100 µM; GI50 (PC-3 [12]): 5 µM; TGI PC-3 (PC-3 [12]): 50.1 µM; GI50 (CCRF-CEM [13]): 1 µM; TGI CCRF-CEM (CCRF-CEM [13]): 79.6 µM
N#C[Se]c1ccc(NC(=O)c2ccc(Cl)cc2)cc1 [I.2b] | > 100 µM | 0.89 µM | > 100 µM | > 100 µM | > 100 µM | > 100 µM | > 100 µM | > 100 µM | > 100 µM | > 100 µM | > 100 µM | > 100 µM | 0.5 ± 0.9 µM | 52.3% | 16.5 ± 3.6 µM | > 100 µM | > 100 µM | 50.1% | 8.7 ± 1.1 µM | > 100 µM | Selectivity index (SI) = GI50 (184B5)/GI50 (MCF-7) (184B5; breast): 1.53; IC (TGI) (CCRF-CEM [7]): > 100 µM; activity at 10 µM (MCF-7 [8]): 33.5%; GI50 (MCF-7 [8]): < 1 µM; CC50 (MCF-7 [8]): > 100 µM; IC (TGI) (MCF-7 [8]): 51.8 ± 2.5 µM
